The values that follow come from US20020115723A1, “Cysteine derivatives” (AJINOMOTO CO., INC., priority 1998, published 2002).

Data set [1] concerns Hairless mice (SKH-1). Nature of the data set: Test on inhibiting function of wrinkles formation induced by ultraviolet rays (No. 2), Components (A) and (B) in combination. It counts as in vivo, mouse. More on the design: scale not given here. As for the experimental part: (§1) Hairless mice (SKH-1, female, 5-6 weeks old) were exposed to ultraviolet rays (UVB) three times/week (Monday, Wednesday and Friday) for 5 weeks, each at 50 to 100 mJ/cm^2 by using the above-described “Dermaray M-DMR-80” (ex Toshiba Medical Supply Co., Ltd.). The test compound (N,N′-diacetyl-L-cystine dimethyl ester) was dissolved in a mixed solvent of propylene glycol, ethanol and water, and was applied to the back portion of each of the mice in an amount of 100 μl, 30 to 60 minutes before exposure to ultraviolet rays, just after the completion of the exposure, and on the days free from exposure to ultraviolet rays (Sunday, Tuesday, Thursday and Saturday). From two weeks after the exposure had started, the wrinkles formed on the back portion of each mouse were evaluated once a week based on the below-described standards, and they were indicated as scores. In addition, the function of the inventive compound for inhibiting wrinkle formation induced by ultraviolet rays was judged based on the below-described judging standards.
Test on Inhibiting Function of Wrinkles Formation Induced by Ultraviolet Rays (No. 2)
Function of suppressing ultraviolet ray-induced wrinkles formation by the synergistic effects when Components (A) and (B) were used in combination, was judged in a similar manner to Test Example 2. Fifteen to twenty mice were divided into 4 groups, that is, a 1st group to which a mixed solvent of propylene glycol, ethanol and water was to be applied, a 2nd group to which a solution of only Component (A) dissolved in the above-described solvent was to be applied, a 3rd group to which a solution of only Component (B) dissolved in the above-described solvent was to be applied, and a 4th group to which a solution of both Components (A) and (B) dissolved in the above-described solvent was to be applied. An average score of each group was determined.

The next data set concerns AP-1. Nature of the data set: Test on the function of inhibiting the AP-1 activation induced by ultraviolet rays (gel shift assay). It counts as cell-based, human. Particulars: single compound. On the procedure:
Test on the Function of Inhibiting the AP-1 Activation Induced by Ultraviolet Rays.
(§2) In a similar manner to Test Example 1, a nucleoprotein was obtained. Then, the activated AP-1 was detected by the gel shift assay. The radioactive value of the AP-1 band was measured as in Test Example 1, whereby the amount of the AP-1 was determined. The AP-1 activation inhibiting ratio of the test compounds was calculated by the below-described equation (2). The results of the test compounds according to the present invention are shown below in Table 4a, while those of the comparative compounds are shown below in Table 4b.
AP-1 activation inhibiting ratio (%)={1−(B1-B3)/(B2-B3)}×100 (2)
B1: radioactive value of the AP-1 band upon addition of a test compound.
B2: radioactive value of the AP-1 band when a test compound is not added.
B3: radioactive value of the AP-1 band when a test compound is not added and is not exposed to ultraviolet rays.
On the technique in general: In EMSA bound probe runs differently from free probe, usually more slowly.

For a further data set, the system named is NF-κB. The experiment in a line: Test on the function of inhibiting the activation of NF-κB induced by ultraviolet rays (gel shift assay). It counts as cell-based, human. The settings on record: human epidermal cells, UVB 50 mJ/cm^2. On the procedure: Test on the Function of Inhibiting the Activation of NF-κB Induced by Ultraviolet Rays.
After 18 hours had elapsed, the culture medium was substituted by a phenol red-free medium. The cells were exposed to ultraviolet rays (UVB: 50 mJ/cm^2) from an ultraviolet irradiator “Dermaray M-DMR-80” (ex Toshiba Medical Supply Co., Ltd.). After 4 to 5 hours had elapsed, the cells were collected, and the nucleoprotein was extracted therefrom in a manner known per se in the art. From the resulting nucleoprotein, the activated NF-κB was detected in accordance with the gel shift assay. The amount of the NF-κB was determined by measuring the radioactive value of the NF-κB band with the use of a bioimaging analyzer “BAS 2000” (ex Fuji Film Co., Ltd.).
The inhibition ratio of the activation of the NF-κB of the test compounds was calculated from the below-described formula (1).
Inhibition ratio of NF-κB activation (%)={1−(A1-A3)/(A2-A3)}×100 (1)
A1: radioactive value of the NF-κB upon addition of a test compound
A2: radioactive value of NF-κB when a test compound is not added
A3: radioactive value of NF-κB when a test compound is not added and is not exposed to ultraviolet rays.

The next data set has as its system human epidermal cells. Nature of the data set: Toxicity to the cultured human epidermal cells seen in the NF-κB / AP-1 activation tests. It counts as cell-based. As for the experimental part: Each of the test compounds was added to a culture plate at a concentration within an extent not causing a damage to the human epidermal cells which had reached the confluent stage in the culture plate. After 18 hours had elapsed, the culture medium was substituted by a phenol red-free medium. The cells were exposed to ultraviolet rays (UVB: 50 mJ/cm^2) from an ultraviolet irradiator “Dermaray M-DMR-80” (ex Toshiba Medical Supply Co., Ltd.). After 4 to 5 hours had elapsed, the cells were collected, and the nucleoprotein was extracted therefrom in a manner known per se in the art. From the resulting nucleoprotein, the activated NF-κB was detected in accordance with the gel shift assay. The amount of the NF-κB was determined by measuring the radioactive value of the NF-κB band with the use of a bioimaging analyzer “BAS 2000” (ex Fuji Film Co., Ltd.).
as §2

For data set [2], the system named is Hairless mice (SKH-1). Nature of the data set: Test on suppressing function of wrinkles formation induced by ultraviolet rays (No. 1). It counts as in vivo, mouse. The settings on record: for Wrinkle score, individual mouse / Wrinkle score, Average: 10% applied; for Wrinkle score, individual mouse: score 0 to 5. As for the experimental part:
Test on Suppressing Function of Wrinkles Formation Induced by Ultraviolet Rays (No. 1)
as §1

SMILES strings stand for the structures. “And” between values parts separate entries of the source, which are not always exact repeats. Identical values can stand only once.

Regarding `CCCCC(CC)COC(=O)C=Cc1ccc(OC)cc1` (centres unmarked) [2-ethylhexyl p-methoxycinnamate], the “Wrinkle score (group average)” value in the data set on Hairless mice (SKH-1) [1] (3% alone, 2nd week) came to 0.0; with Hairless mice (SKH-1) [1] (3% alone, 3rd week), 0.5; in the data set with Hairless mice (SKH-1) [1] (3% alone, 4th week), 1.5; in the data set on Hairless mice (SKH-1) [1] (3% alone, 5th week) it was 0.5. Besides, the “AP-1 activation Inhibiting ratio (%)” value with AP-1 (10 μM) is −20%; in the data set with AP-1 (100 μM), 11%.
Take `O=C1O[C@H]([C@@H](O)CO)C(O)=C1O` [L (+) ascorbic acid]: the “Wrinkle score (group average)” value in the data set on Hairless mice (SKH-1) [1] (5% alone, 2nd week) was determined as 1.0; in the data set with Hairless mice (SKH-1) [1] (5% alone, 3rd week), 2.0; in the data set on Hairless mice (SKH-1) [1] (5% alone, 4th week) it was 4.0; in the data set with Hairless mice (SKH-1) [1] (5% alone, 5th week) it was 4.0. In addition, the “AP-1 activation Inhibiting ratio (%)” value with AP-1 (0.1 mM) is given as 1%; with AP-1 (1 mM), 0%.
Take `CCOC(=O)[C@@H](N)CS` [L-cysteine ethyl ester]: the “Inhibition ratio (%) of NF-κB activation” value with NF-κB (addition concentration 0.5 mM) is recorded as 60%; in the data set on NF-κB (addition concentration 1 mM), 61%. For the same molecule, the “Toxicity expressed (inhibition ratio)” value with human epidermal cells (addition concentration 5 mM, NF-κB test) is given as “Toxity”.
Turning to `COC(=O)[C@H](CSSC[C@H](NC(C)=O)C(=O)OC)NC(C)=O` [N,N′-diacetyl-L-cystine dimethyl ester], the “Inhibition ratio (%) of NF-κB activation” value with NF-κB (addition concentration 0.01 mM) came out at 47%; in the data set with NF-κB (addition concentration 0.1 mM) it was 86%. Also, the “Wrinkle score, individual mouse” value in the data set with Hairless mice (SKH-1) [2] (2nd week of UVB exposure) was 2 and 1 (4×) and 0 and 3; in the data set on Hairless mice (SKH-1) [2] (3rd week of UVB exposure), 2 (5×) and 3 and 1; in the data set on Hairless mice (SKH-1) [2] (4th week of UVB exposure), 3 (3×) and 5 (2×) and 2 and 4; in the data set on Hairless mice (SKH-1) [2] (5th week of UVB exposure), 2 (3×) and 3 (3×) and 4. Moreover, the “Wrinkle score, Average” value in the data set with Hairless mice (SKH-1) [2] (2nd week, solvent group 2.6) turned out to be 1.3; in the data set on Hairless mice (SKH-1) [2] (3rd week, solvent group 3.6), 2.0; with Hairless mice (SKH-1) [2] (4th week, solvent group 4.0) it was 3.6; in the data set with Hairless mice (SKH-1) [2] (5th week, solvent group 4.4), 2.7. For the same molecule, in the data set with Hairless mice (SKH-1) [2] (summary of Table 3), the “Effect on wrinkle formation induced by ultraviolet rays (in words)” value was “exhibited effects for retarding and alleviating the wrinkle formation induced by ultraviolet rays”. In addition, the “Wrinkle score (group average)” value was 5.0 and 3.0 and 2.5 in the data set with Hairless mice (SKH-1) [1] (10% alone, 4th week); 4.0 and 2.0 in the data set with Hairless mice (SKH-1) [1] (10% alone, 5th week). Moreover, the “AP-1 activation Inhibiting ratio (%)” value in the data set with AP-1 (10 μM) was determined as 4%.
With `CC1=C(/C=C/C(C)=C/C=C/C(C)=C/C=C/C=C(C)/C=C/C=C(C)/C=C/C2=C(C)C(=O)[C@@H](O)CC2(C)C)C(C)(C)C[C@H](O)C1=O` [astaxantin], the “Toxicity expressed (in inhibiting ratio column)” value in the data set with human epidermal cells (100 μM, AP-1 test) is listed as “Toxicity”. Moreover, the “AP-1 activation Inhibiting ratio (%)” value with AP-1 (1 μM) is −54%; in the data set with AP-1 (10 μM) it was 0%.
